Assay results reported in patent US9180107B2 (NANOPHARMACEUTICALS LLC, priority 2009, dated 2015).
Like-named read-outs stand apart in the source and are kept apart here. Marks after values point to notes of the source that are not given here.

Legend:
Format in all cases: cell-based
[1] = system: Human adenoid cystic carcinoma TGS112T cells; assay: PCNA western blot (thyroid hormone-induced proliferation)
Text: The techniques have been described in a number of publications. (See Davis et al., 2006. Cancer Res. 66:7270-7275; Lin et al., 2007. Steroids. 72:180-187; Lin et al., 2008. Carcinogenesis. 29:62-69; and Davis et al., 2004. Circ Res. 94:1500-1506, each of which is herein incorporated by reference in its entirety). Nucleoproteins were separated on discontinuous SDS-PAGE (9% gels) and the proteins transferred by electroblotting to nitrocellulose membranes (Millipore, Bedford, Mass.). After blocking with 5% milk in Tris-buffered saline containing 0.1% Tween, the membranes were incubated with selected primary antibodies overnight. The secondary antibodies were either goat anti-rabbit IgG (1:1000, Dako, Carpenteria, Calif.) or rabbit anti-mouse IgG (1:1000, Dako), depending upon the origin of the primary antibody. Immunoreactive proteins were then detected by chemiluminescence.
Human adenoid cystic carcinoma TGS112T cells were cultured in medium that contained 0.25% hormone-stripped serum for 2 d and then treated with 10^−7 M tetrac or nano-tetrac for 30 min prior institution of 10^−7 M T4 treatment for 24 h. Nuclear proteins were separated by SDS-PAGE followed by western blot analysis with proliferating-cell nuclear antigen (PCNA) antibody. Thyroid hormone-induced PCNA accumulation was inhibited by tetrac. (See FIG. 6A). […] (See FIG. 6A). Inhibition of thyroid hormone-induced proliferation was confirmed by inhibition by tetrac and nano-tetrac of thyroid hormone-induced accumulation and [^3H]-thymidine incorporation. (See FIG. 6B). […] (See FIG. 6B). […] The effect of nano-tetrac and tetrac on cell proliferation was examined by counting TGS112T cells which were treated daily with 10^−6 M tetrac or 10^−6 M nano-tetrac. […] (See FIG. 6C).

[2] = system: human breast cancer MDA-MB-231 cells (MDA-MB); assay: Anti-proliferation (total cell counts) in bellows cell culture system with pharmacodynamic modeling; conditions: for IC50 / Imaxk (maximum effect on rate of growth) / ImaxR (maximum effect on success of replication): MDA-MB 231
Experimental: Each cell culture system is a compressible (bellows) 500 mL bottle which contains cell culture medium and specially-treated polymer flakes to which cells spontaneously attach and grow. Through moving bellows and porous membranes, the level of the medium in the bottle changes periodically. Consequently, the cells are alternately submerged in the culture medium, then exposed to 5% CO2/95% air which creates a dynamic interface between air and medium on the cell surface that maximizes nutrient uptake and oxygen transfer. The system provides a low shear, high aeration and foam-free culture environment. Proprietary treatment of the surfaces of the flakes enables seating and harvesting of cells and secreted proteins are readily isolated from the perfusate.
In a non-perfusion bellows cell culture system that was also used, the medium in each bottle was replaced by fresh medium every 24 h. In the perfusion bellows cell culture system, medium was progressively refreshed over 24 h, i.e., one complete change of medium occurred over 24 h.
In establishing the system, 5×10^7 cells were seeded in perfusion and non-perfusion bellows bottles and incubated overnight at 37° C. After that, flakes were harvested, trypsinized and cells were collected. Cell numbers were counted. […] For experiments, the perfusion bellows cell culture system was run for 2 d prior to starting experiments. […] Cell cultures were then exposed to 1% FBS-containing medium. Tetrac or nano-tetrac was added to the medium in the reservoir bottle to achieve the final concentrations reported for each experiment.
The time course of cell counts of the various cancer lines treated with different concentrations of tetrac or nano-tetrac was modeled by utilizing the pooled approach in NONMEM VI (version 6.2). All time points and treatment arms within each experiment were modeled simultaneously. A mechanism-based model (see Bulitta et al., 2009. Antimicrob. Agents Chemother. 53:46-56) was adapted to describe the proliferation of cancer cells and the inhibition of proliferation by tetrac. This model assumes two populations of cells in different phases of the cell cycle: cells that are preparing for replication (phase 1) and cells that are immediately “pre-replication” (phase 2). Cells transition from phase 1 to phase 2 by a first-order growth rate constant, while replication from phase 2 to phase 1 is assumed to be fast (see FIG. 2).
[formula] [formula] [formula] where C1 is the number of cells in phase 1, C2 the number of cells in phase 2, k21 the first order rate constant for replication (transition from phase 2 to phase 1), and k12 the first-order growth rate constant for transition from phase 1 to phase 2. The total number of cells Ct is the sum of C1 and C2. Rep is the replication efficiency factor which is described by:
[formula] where Cmax is the maximum number of cells. Without tetrac, the replication efficiency factor approaches 2, which reflects a 100% probability of successful replication. InhR describes the inhibitory effect of tetrac on the probability of successful replication:
[formula] Where ImaxR is the maximum effect of tetrac on probability of successful replication and IC50R is the tetrac concentration needed to achieve a half-maximal effect. Inhk describes the inhibitory effect of tetrac on the rate of growth:
[formula] Where Imaxk is the maximum effect of tetrac on rate of growth and IC50k is the tetrac concentration needed to achieve a half-maximal effect. Results

[3] = system: human embryonic kidney 293T cells; assay: Proliferation of non-malignant cells; conditions: 10^−6M daily for 7 days
Experimental: FIG. 9 is a series of graphs showing the comparison of nano-tetrac and tetrac on cell proliferation in non-malignant cells. CV-1 cells (FIG. 9A) and 293 T cells (FIG. 9B) were treated daily with 10^−6 M tetrac or nano-tetrac. Cells were harvested at the time points indicated. Total cell numbers taken after each treatment were used as an indicator for tetrac- or nano-tetrac-induced anti-proliferation.
In order to confirm that tetrac and nano-tetrac only suppress cell proliferation in cancer cells, tetrac and nano-tetrac were also examined for potential anti-proliferative effects on immortalized non-malignant cells, using monkey kidney epithelial CV-1 cells and human embryonic kidney 293T cells. The cells were treated daily with either 10^−6M tetrac or 10^−6M nano-tetrac for 7 days, then were harvested, counted and examined microscopically.

[4] = study 2, rich data from one single study over 19 days

IC50 ([2]; Homo sapiens, 456 h, study 2, rich data from one single study over 19 days, read-out: IC50R (effect on success of replication)): 87 nM | IC50 ([2]; Homo sapiens, 456 h, study 2, rich data from one single study over 19 days, read-out: IC50k (effect on rate of growth)): 5100 nM | IC50 ([2]; Homo sapiens, study 1, sparse sampling, data pooled from two studies, read-out: IC50R (effect on success of replication)): 4400 nM | IC50 ([2]; Homo sapiens, study 1, sparse sampling, data pooled from two studies, read-out: IC50k (effect on rate of growth)): 7.6 nM
SMILES: O=C(O)Cc1cc(I)c(Oc2cc(I)c(O)c(I)c2)c(I)c1 [tetrac, Tetraiodothyroacetic acid]
Thyroid hormone-induced PCNA accumulation ([1]; 10^−7 M tetrac, 10^−7 M T4, 24 h): inhibited | Proliferation of TGS112T cells (agent alone) ([1]; 10^−7 M, 24 h): little effect alone | inhibition at 0.1 µM ([2]; Homo sapiens, MDA-MB-231, 192 h, read-out: inhibitory effect on cell growth): 38% | Imaxk (maximum effect on rate of growth) ([2]; study 1, sparse sampling, data pooled from two studies): 0.19 | ImaxR (maximum effect on success of replication) ([2]; study 1, Imax at time = 0, decreases with time): 0.53^a | ImaxR (maximum effect on success of replication) [2, 4]: 0.20 | Imaxk (maximum effect on rate of growth) [2, 4]: 0.85 | change in cell numbers and morphology vs untreated control [3]: no significant change
